In the NIST ThermoML archive (doi:10.1016/j.jct.2016.09.007):
Numbers after ± are expanded uncertainties.

Assay: xn = mol fraction of the nth substance listed
Conditions: 93.2 kPa, Liquid; for speed of sound: Frequency=3 MHz, Sing-around technique in a fixed-path interferometer; for mass density: Vibrating tube method

CCCC(=O)[O-].CCCC[NH3+] [n-butylammonium butanoate] + CCCO
Conditions	mass density, 293.15 K [kg/m3]	mass density, 298.15 K [kg/m3]	mass density, 303.15 K [kg/m3]	mass density, 308.15 K [kg/m3]	mass density, 313.15 K [kg/m3]	speed of sound, 293.15 K [m/s]	speed of sound, 298.15 K [m/s]	speed of sound, 303.15 K [m/s]	speed of sound, 308.15 K [m/s]	speed of sound, 313.15 K [m/s]
x1 = 0.0507	820.248 ± 4	816.288 ± 4	812.295 ± 4	808.263 ± 4	804.187 ± 4	1245.5 ± 5.3	1228.1 ± 5.3	1210.8 ± 5.3	1193.6 ± 5.3	1176.7 ± 5.3
x1 = 0.1012	834.054 ± 4	830.162 ± 4	826.227 ± 4	822.265 ± 4	818.288 ± 4	1264 ± 5.3	1246.6 ± 5.3	1229.4 ± 5.3	1212.2 ± 5.3	1195.2 ± 5.3
x1 = 0.1518	845.668 ± 4	841.844 ± 4	837.991 ± 4	834.106 ± 4	830.181 ± 4	1280 ± 5.3	1262.6 ± 5.3	1245.3 ± 5.3	1228.2 ± 5.3	1211.2 ± 5.3
x1 = 0.202	855.786 ± 4	852.003 ± 4	848.218 ± 4	844.396 ± 4	840.532 ± 4	1294.2 ± 5.3	1276.9 ± 5.3	1259.7 ± 5.3	1242.6 ± 5.3	1225.6 ± 5.3
x1 = 0.2517	864.424 ± 4	860.713 ± 4	856.978 ± 4	853.215 ± 4	849.411 ± 4	1306.7 ± 5.3	1289.3 ± 5.3	1272.1 ± 5.3	1255 ± 5.3	1238.2 ± 5.3
x1 = 0.3003	871.964 ± 4	868.301 ± 4	864.616 ± 4	860.902 ± 4	857.161 ± 4	1317.9 ± 5.3	1300.6 ± 5.3	1283.4 ± 5.3	1266.4 ± 5.3	1249.5 ± 5.3
x1 = 0.3334	876.626 ± 4	872.985 ± 4	869.329 ± 4	865.652 ± 4	861.938 ± 4	1325 ± 5.3	1307.7 ± 5.3	1290.6 ± 5.3	1273.6 ± 5.3	1256.7 ± 5.3
x1 = 0.401	885.2 ± 4	881.621 ± 4	878.022 ± 4	874.402 ± 4	870.759 ± 4	1338.2 ± 5.3	1321 ± 5.3	1303.9 ± 5.3	1286.9 ± 5.3	1270.2 ± 5.3
x1 = 0.4478	890.446 ± 4	886.895 ± 4	883.335 ± 4	879.756 ± 4	876.162 ± 4	1346.9 ± 5.3	1329.7 ± 5.3	1312.6 ± 5.3	1295.7 ± 5.3	1279 ± 5.3
x1 = 0.5001	895.864 ± 4	892.351 ± 4	888.828 ± 4	885.287 ± 4	881.725 ± 4	1355.5 ± 5.3	1338.3 ± 5.3	1321.2 ± 5.3	1304.4 ± 5.3	1287.8 ± 5.3
x1 = 0.5465	900.176 ± 4	896.692 ± 4	893.2 ± 4	889.694 ± 4	886.168 ± 4	1362.8 ± 5.3	1345.6 ± 5.3	1328.5 ± 5.3	1311.7 ± 5.3	1295.1 ± 5.3
x1 = 0.5992	904.688 ± 4	901.241 ± 4	897.78 ± 4	894.304 ± 4	890.806 ± 4	1370.7 ± 5.3	1353.4 ± 5.3	1336.4 ± 5.3	1319.6 ± 5.3	1303 ± 5.3
x1 = 0.6495	908.619 ± 4	905.208 ± 4	901.781 ± 4	898.337 ± 4	894.874 ± 4	1377.9 ± 5.3	1360.5 ± 5.3	1343.5 ± 5.3	1326.6 ± 5.3	1310.1 ± 5.3
x1 = 0.6928	911.76 ± 4	908.377 ± 4	904.977 ± 4	901.561 ± 4	898.121 ± 4	1384 ± 5.3	1366.5 ± 5.3	1349.4 ± 5.3	1332.5 ± 5.3	1316 ± 5.3
x1 = 0.7484	915.581 ± 4	912.23 ± 4	908.868 ± 4	905.487 ± 4	902.083 ± 4	1392 ± 5.3	1374.2 ± 5.3	1356.9 ± 5.3	1340 ± 5.3	1323.4 ± 5.3
x1 = 0.7906	918.267 ± 4	914.932 ± 4	911.595 ± 4	908.238 ± 4	904.859 ± 4	1398.1 ± 5.3	1380.1 ± 5.3	1362.6 ± 5.3	1345.6 ± 5.3	1328.9 ± 5.3
x1 = 0.8695	922.883 ± 4	919.552 ± 4	916.236 ± 4	912.916 ± 4	909.578 ± 4	1409.8 ± 5.3	1391.2 ± 5.3	1373.3 ± 5.3	1355.9 ± 5.3	1339 ± 5.3
x1 = 0.9443	926.755 ± 4	923.441 ± 4	920.127 ± 4	916.826 ± 4	913.524 ± 4	1420 ± 5.3	1400.6 ± 5.3	1382 ± 5.3	1364.2 ± 5.3	1347 ± 5.3
x1 = 1	928.794 ± 4	925.509 ± 4	922.217 ± 4	918.88 ± 4	915.567 ± 4	1431.5 ± 5.3	1410.3 ± 5.3	1390.4 ± 5.3	1371.5 ± 5.3	1353.6 ± 5.3

CCCC(=O)[O-].CCCC[NH3+] [n-butylammonium butanoate] + CCO
Conditions	mass density, 293.15 K [kg/m3]	mass density, 298.15 K [kg/m3]	mass density, 303.15 K [kg/m3]	mass density, 308.15 K [kg/m3]	mass density, 313.15 K [kg/m3]	speed of sound, 293.15 K [m/s]	speed of sound, 298.15 K [m/s]	speed of sound, 303.15 K [m/s]	speed of sound, 308.15 K [m/s]	speed of sound, 313.15 K [m/s]
x1 = 0.0512	814.143 ± 4	810.002 ± 4	805.829 ± 4	801.613 ± 4	797.355 ± 4	1199 ± 5.2	1182 ± 5.2	1165 ± 5.2	1148.2 ± 5.2	1131.5 ± 5.2
x1 = 0.1009	832.02 ± 4	828.016 ± 4	823.986 ± 4	819.912 ± 4	815.802 ± 4	1227.7 ± 5.2	1210.7 ± 5.2	1193.8 ± 5.2	1177 ± 5.2	1160.4 ± 5.2
x1 = 0.1503	846.238 ± 4	842.335 ± 4	838.406 ± 4	834.444 ± 4	830.445 ± 4	1251.6 ± 5.2	1234.6 ± 5.2	1217.8 ± 5.2	1201.1 ± 5.2	1184.5 ± 5.2
x1 = 0.1994	858.208 ± 4	854.396 ± 4	850.551 ± 4	846.681 ± 4	842.738 ± 4	1272.7 ± 5.2	1255.7 ± 5.2	1238.9 ± 5.2	1222.2 ± 5.2	1205.7 ± 5.2
x1 = 0.2504	868.474 ± 4	864.721 ± 4	860.912 ± 4	857.053 ± 4	853.31 ± 4	1291.1 ± 5.2	1274.2 ± 5.2	1257.4 ± 5.2	1240.8 ± 5.2	1224.2 ± 5.2
x1 = 0.2982	876.405 ± 4	872.722 ± 4	869.017 ± 4	865.27 ± 4	861.491 ± 4	1306 ± 5.2	1289.1 ± 5.2	1272.3 ± 5.2	1255.7 ± 5.2	1239.2 ± 5.2
x1 = 0.3495	883.788 ± 4	880.151 ± 4	876.505 ± 4	872.836 ± 4	869.15 ± 4	1320 ± 5.2	1303.1 ± 5.2	1286.3 ± 5.2	1269.7 ± 5.2	1253.3 ± 5.2
x1 = 0.399	890.046 ± 4	886.464 ± 4	882.862 ± 4	879.217 ± 4	875.544 ± 4	1332.2 ± 5.2	1315.3 ± 5.2	1298.5 ± 5.2	1282 ± 5.2	1265.5 ± 5.2
x1 = 0.4372	894.397 ± 4	890.847 ± 4	887.284 ± 4	883.704 ± 4	880.105 ± 4	1340.7 ± 5.2	1323.8 ± 5.2	1307.1 ± 5.2	1290.5 ± 5.2	1274.1 ± 5.2
x1 = 0.4992	900.42 ± 4	896.912 ± 4	893.396 ± 4	889.863 ± 4	886.306 ± 4	1352.8 ± 5.2	1335.9 ± 5.2	1319.2 ± 5.2	1302.6 ± 5.2	1286.2 ± 5.2
x1 = 0.547	904.601 ± 4	901.123 ± 4	897.636 ± 4	894.139 ± 4	890.621 ± 4	1361.5 ± 5.2	1344.5 ± 5.2	1327.7 ± 5.2	1311.2 ± 5.2	1294.8 ± 5.2
x1 = 0.6017	908.757 ± 4	905.303 ± 4	901.834 ± 4	898.348 ± 4	894.849 ± 4	1370.4 ± 5.2	1353.3 ± 5.2	1336.5 ± 5.2	1319.9 ± 5.2	1303.6 ± 5.2
x1 = 0.649	912.071 ± 4	908.66 ± 4	905.237 ± 4	901.798 ± 4	898.346 ± 4	1377.6 ± 5.2	1360.5 ± 5.2	1343.6 ± 5.2	1326.9 ± 5.2	1310.6 ± 5.2
x1 = 0.6917	914.76 ± 4	911.378 ± 4	907.983 ± 4	904.574 ± 4	901.145 ± 4	1384 ± 5.2	1366.7 ± 5.2	1349.7 ± 5.2	1333 ± 5.2	1316.6 ± 5.2
x1 = 0.7436	917.782 ± 4	914.431 ± 4	911.071 ± 4	907.692 ± 4	904.29 ± 4	1391.5 ± 5.2	1373.9 ± 5.2	1356.7 ± 5.2	1339.9 ± 5.2	1323.4 ± 5.2
x1 = 0.7901	920.284 ± 4	916.95 ± 4	913.616 ± 4	910.264 ± 4	906.897 ± 4	1398.2 ± 5.3	1380.2 ± 5.3	1362.8 ± 5.2	1345.9 ± 5.2	1329.3 ± 5.2
x1 = 0.8493	923.093 ± 4	919.763 ± 4	916.446 ± 4	913.124 ± 4	909.786 ± 4	1406.5 ± 5.3	1388 ± 5.3	1370.2 ± 5.3	1352.9 ± 5.3	1336.2 ± 5.3
x1 = 0.8904	924.887 ± 4	921.547 ± 4	918.232 ± 4	914.921 ± 4	911.604 ± 4	1412.5 ± 5.3	1393.5 ± 5.3	1375.2 ± 5.3	1357.7 ± 5.3	1340.7 ± 5.3
x1 = 0.94	927.026 ± 4	923.73 ± 4	920.395 ± 4	917.09 ± 4	913.789 ± 4	1420.7 ± 5.3	1400.8 ± 5.3	1382 ± 5.3	1364 ± 5.3	1346.7 ± 5.3
x1 = 1	928.794 ± 4	925.509 ± 4	922.217 ± 4	918.88 ± 4	915.567 ± 4	1431.5 ± 5.3	1410.3 ± 5.3	1390.4 ± 5.3	1371.5 ± 5.3	1353.6 ± 5.3
